As a reminder, the melting point is the temperature, or range, at which the solid turns liquid. As usually defined, the IC50 is the midpoint of a concentration-inhibition curve.

Counter-ions that a name gives are not always drawn. Like-named read-outs stand apart in the source and are kept apart here. Where only a bound is given, the exact number is not on record here.

One data set addresses human recombinant MAO-A (Homo sapiens (Human), UniProt P21397). The experiment in a line: Monoaminooxidase (MAO) activity assay, MAO-Glo luminescent method, MAO-A.
Another data set concerns the target human recombinant MAO-B (Homo sapiens (Human), UniProt P27338). The experiment in a line: Monoaminooxidase (MAO) activity assay, MAO-Glo luminescent method, MAO-B.
A further data set concerns the target I2 Imidazoline Receptor. The experiment in a line: Binding study towards I2 imidazoline receptor subtype in rat brain ([3H]2-BFI displacement). The settings on record: read-out: [3H]2-BFI binding IC50; rat whole brain membranes, [3H]-2BFI 2.5x10-9 M, 90 min at 25° C. The method, then:
Binding Study Towards I2 Imidazoline Receptor Subtype in Rat Brain.
Male Wistar rats (240-300 g, Harlan, Italy) were sacrificed by decapitation. Whole brains were immediately removed on ice and homogenised in 10 volumes of buffered sucrose (0.32M in 50 mM Tris-HCl, pH 7.4 at 4° C.) using a motor driven Teflon-glass homogeniser. The homogenate was centrifuged at 1000×g for 10 min at 4° C. The resultant supernatants were pooled and centrifuged at 32000×g for 20 min at 4° C. The supernatants were discarded and each pellet suspended in 10 volumes of assay buffer (50 mM Tris-HCl, 1 mM MgCl2, pH 7.4 at 4° C.) and spun at 32000×g for 20 min at 4° C. The pellets were washed twice by repeated centrifugation at 32000×g for 20 min at 4° C. The final pellets were stored at −80° C. until use. Prior to radioligand binding studies, membrane pellets were thawed and washed a further 4 times by re-suspension in 10 volumes of assay buffer (as above) and repeated centrifugation to remove any possible endogenous inhibitors of binding. […] Non specific binding was determined in the presence of 10^-5 M BU224 (Tocris Bioscience). The incubation, in a final volume of 1 ml, was performed in polystyrene multiwell 24, started adding membranes suspension and was carried out for 90 min at 25° C. With the exception of total binding and non specific binding, all concentration points were performed in duplicate. Compounds were tested in 3-5 different concentrations, ranging from 10^-10 M to 10^-5 M final concentration.

The subject of a further data set is CD1 Mice. The experiment in a line: Tail suspension test in mice. Type of data set: in vivo. The settings on record: Table 3; for MPE (% inhibition in immobility time): 30 min before the test. The method, then: Tail Suspension Test in Mice
To evaluate novel antidepressants compounds several animal models have been developed. […] The antidepressant effect of representative examples of compounds of formula (I) has been evaluated according to the procedure below. The immobility was induced according to the procedure of Stem et al. (1985). CD1 Mice (Harlan, Italy) were individually suspended 75 cm above the top with an adhesive tape placed 1 cm from the tip of the tail. Immobility duration was recorded for 5 min. Mice were considered immobile only when they hung passively and completely motionless. Compounds were given orally, 30 min before the test at doses ranging between 0.3 and 30 mg/kg. Data collected were expressed as mean percent effect (MPE), which represents the % of inhibition in immobility time between the animals treated with representative compounds of formula (I) and the controls that received only the vehicle.

human recombinant MAO-B, sequence (P27338 whole entry): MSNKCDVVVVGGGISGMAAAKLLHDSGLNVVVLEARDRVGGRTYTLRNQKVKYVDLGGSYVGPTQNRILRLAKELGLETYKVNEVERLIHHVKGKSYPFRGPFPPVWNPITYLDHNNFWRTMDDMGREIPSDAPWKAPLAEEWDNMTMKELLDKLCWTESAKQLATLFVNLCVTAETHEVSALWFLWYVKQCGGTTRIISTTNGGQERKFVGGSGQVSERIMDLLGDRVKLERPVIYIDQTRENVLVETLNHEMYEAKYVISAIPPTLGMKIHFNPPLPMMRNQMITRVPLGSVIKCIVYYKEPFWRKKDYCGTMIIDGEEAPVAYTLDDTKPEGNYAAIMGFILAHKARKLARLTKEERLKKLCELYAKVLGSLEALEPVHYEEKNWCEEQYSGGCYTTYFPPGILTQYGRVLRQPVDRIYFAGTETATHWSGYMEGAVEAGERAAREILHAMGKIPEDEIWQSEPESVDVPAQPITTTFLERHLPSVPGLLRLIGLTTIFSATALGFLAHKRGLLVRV
human recombinant MAO-A, sequence (P21397 whole entry): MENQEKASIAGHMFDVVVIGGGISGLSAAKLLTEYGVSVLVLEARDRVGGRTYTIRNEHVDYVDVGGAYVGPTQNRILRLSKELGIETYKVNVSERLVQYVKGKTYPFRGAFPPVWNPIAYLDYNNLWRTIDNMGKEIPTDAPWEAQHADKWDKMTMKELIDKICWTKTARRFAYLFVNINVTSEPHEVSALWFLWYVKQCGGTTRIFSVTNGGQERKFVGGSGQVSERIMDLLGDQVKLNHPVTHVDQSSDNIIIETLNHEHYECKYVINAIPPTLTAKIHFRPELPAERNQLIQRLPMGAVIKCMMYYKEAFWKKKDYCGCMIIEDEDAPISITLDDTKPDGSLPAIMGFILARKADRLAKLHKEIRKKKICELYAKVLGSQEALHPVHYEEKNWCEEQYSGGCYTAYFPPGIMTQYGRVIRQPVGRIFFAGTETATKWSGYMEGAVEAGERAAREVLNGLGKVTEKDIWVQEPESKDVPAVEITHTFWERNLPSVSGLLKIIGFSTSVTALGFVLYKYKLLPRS
Method for human recombinant MAO-A: Monoaminooxidase (MAO) Activity Assay.
(§1) Inhibitory activity of compounds was evaluated by a homogeneous luminescent method, the MAO-Glo™ Assay (Promega), measuring the monoamine oxidase activity (MAOs) from recombinant source (microsomes from baculovirus infected insect cells, Sigma). Experiments were performed according to the Supplier's procedure, incubating human recombinant MAO-A or MAO-B with a luminogenic substrate, a derivative of beetle luciferin ((4S)-4,5-dihydro-2-(6-hydroxybenzothiazolyl)-4-thiazolecarboxylic acid). […] The MAO-Glo™ Assay was performed in two steps:
(§2) Step 1. The MAO reaction: MAO substrate was incubated with MAO-A or MAO-B (1 μg/sample) in the absence (Total activity) or presence (modulated activity) of test compounds. Total activity was determined in the presence the appropriate solvent. […] Reaction started adding the enzyme solution and samples were incubated for 60 min at room temperature. For negative control reaction, samples of MAO reaction buffer (100 mM Hepes, 5% glycerol, pH 7.5) indeed the test compound were included. For MAO-B activity assay, MAO reaction buffer contain 10% DMSO, in order to increase enzymatic activity. Step 2. […] At the end of incubation 50 μl of Luciferin Detection reagent were added to each well, plate was incubated at room temperature for 20 min, then luminescent signal was detected by luminometer (integration time 0.25-1 sec per well). […] Net MAO-dependent luminescence (net RLU) were calculated by subtracting the average luminescence of the negative control reaction without MAO enzyme. A reduction of net signal in the presence of test compound, with respect to total activity, reflect its effect on MAOs activity. […] A percentage of inhibition for each concentration tested were calculated and the IC50 value was estimated by linear regression.
Method for human recombinant MAO-B: Monoaminooxidase (MAO) Activity Assay.
as §1, §2

As to `COc1ccc(-c2ncc3cc(-n4ccnc4C)ccc3n2)cc1` (as salt: hydrochloride) [Example 3, [6-(2-methyl-1H-imidazol-1-yl)-2-(4-methoxyphenyl)]quinazoline], the melting point is 198.3 to 200.3 °C. Consider `Cc1cncn1-c1ccc2nc(-c3ccccc3)ncc2c1` (as salt: hydrochloride) [Example 5, [6-(5-methyl-1H-imidazol-1-yl)-2-phenyl]quinazoline], for which the melting point fell in the range of 138.5 to 139.1 °C. As for `COc1ccc(-c2ncc3cc(-n4cnc(C)c4)ccc3n2)cc1` (as salt: hydrochloride) [Example 6, [6-(4-methyl-1H-imidazol-1-yl)-2-(4-methoxyphenyl)]quinazoline], the melting point was 201 to 202 °C. `Cc1cn(-c2ccc3nc(-c4ccc5c(c4)OCO5)ncc3c2)cn1` (as salt: hydrochloride) [Example 9, [6-(4-methyl-1H-imidazol-1-yl)-2-(1,3-benzodioxol-5-yl)]quinazoline]: the melting point is 215.3 to 218.7 °C. In turn, `Cc1cn(-c2ccc3nc(-c4ccc(S(C)(=O)=O)cc4)ncc3c2)cn1` (as salt: hydrochloride) [Example 11, [6-(4-methyl-1H-imidazol-1-yl)-2-(4-methanesulfonylphenyl)]quinazoline] returned a melting point of 276.4 to 281.7 °C. In the case of `COc1ccc(-c2ccc3cc(-n4ccnc4)ccc3n2)cc1` (as salt: hydrochloride) [Example 18, [6-(1H-imidazol-1-yl)-2-(4-methoxyphenyl)]quinoline dihydrochloride], the melting point fell in the range of 266 to 267 °C.

For the compound `COc1ccccc1-c1ccc2cc(-n3ccnc3)ccc2n1` (as salt: hydrochloride) [Example 19, [6-(1H-imidazol-1-yl)-2-(2-methoxyphenyl)]quinoline dihydrochloride], the melting point lay in the range of 251.5 to 252 °C. In the case of `c1cn(-c2ccc3nc(-c4ccoc4)ccc3c2)cn1` (as salt: hydrochloride) [Example 20, [6-(1H-imidazol-1-yl)-2-(3-furyl)]quinoline dihydrochloride], the melting point is 293.1 to 295.6 °C.

The compound `Fc1ccc(-c2ccc3cc(-n4ccnc4)ccc3n2)cc1` (as salt: hydrochloride) [Example 21, [6-(1H-imidazol-1-yl)-2-(4-fluorophenyl)]quinoline dihydrochloride] had a melting point of 280.7 to 282 °C. On to `CN(C)c1ccc(-c2ccc3cc(-n4ccnc4)ccc3n2)cc1` (as salt: hydrochloride) [Example 22, [6-(1H-imidazol-1-yl)-2-(4-dimethylaminophenyl)]quinoline trihydrochloride], for which the melting point is 284 to 286 °C. Turning to `FC(F)(F)Oc1ccc(-c2ccc3cc(-n4ccnc4)ccc3n2)cc1` (as salt: hydrochloride) [Example 23, [6-(1H-imidazol-1-yl)-2-(4-trifluoromethoxyphenyl)]quinoline dihydrochloride], the melting point was 260 to 262 °C.

`Cc1cc(OC(F)(F)F)ccc1-c1ccc2cc(-n3ccnc3)ccc2n1` (as salt: hydrochloride) [Example 24, [6-(1H-imidazol-1-yl)-2-(2-methyl-4-trifluoromethoxyphenyl)]quinoline dihydrochloride] displayed a melting point of 269.7 to 274.5 °C.

Regarding `COc1ccc(-c2ccc3cc(-n4ccnc4C)ccc3n2)cc1` (as salt: hydrochloride) [Example 26, [6-(2-methyl-1H-imidazol-1-yl)-2-(4-methoxyphenyl)]quinoline dihydrochloride], the melting point was 230 °C (dec.). For `COc1ccccc1-c1ccc2cc(-n3ccnc3C)ccc2n1` (as salt: hydrochloride) [Example 27, [6-(2-methyl-1H-imidazol-1-yl)-2-(2-methoxyphenyl)]quinoline dihydrochloride], the melting point was 235 °C (dec.). The same measure, in the same setting: the figure for `Cc1nccn1-c1ccc2nc(-c3ccoc3)ccc2c1` (as salt: hydrochloride) [Example 28, [6-(2-methyl-1H imidazol-1-yl)-2-(3-furyl)]quinoline dihydrochloride] is 240.1 to 243.2 °C; for `Cc1nccn1-c1ccc2nc(-c3ccccc3)ccc2c1` (as salt: hydrochloride) [Example 29, [6-(2-methyl-1H imidazol-1-yl)-2-(phenyl)]quinoline dihydrochloride] it is 296 to 297 °C; for `COc1ccc(-c2ccc3cc(-n4cnc(C)c4)ccc3n2)cc1` (as salt: hydrochloride) [Example 31, [6-(4-methyl-1H-imidazol-1-yl)-2-(4-methoxyphenyl)]quinoline dihydrochloride] it is 276 to 278 °C (dec.). Turning to `Cc1cn(-c2ccc3nc(-c4ccc(F)cc4)ccc3c2)cn1` (as salt: hydrochloride) [Example 32, [6-(4-methyl-1H-imidazol-1-yl)-2-(4-fluorophenyl)]quinoline dihydrochloride], the melting point fell in the range of 264 to 268 °C. Consider `CSc1ccc(-c2ccc3cc(-n4cnc(C)c4)ccc3n2)cc1` (as salt: hydrochloride) [Example 33, [6-(4-methyl-1H-imidazol-1-yl)-2-(4-methylthiophenyl)]quinoline dihydrochloride], for which the melting point lay in the range of 294 to 296 °C. On to `N=C(N)NCCCCN` [Agmatine, reference compound], for which the values for the IC50 on human recombinant MAO-A, on human recombinant MAO-B and on I2 Imidazoline Receptor were more than 100000 nM, more than 100000 nM and more than 10000 nM, respectively. `C#CCN(C)CCCOc1ccc(Cl)cc1Cl` [Clorgyline, reference compound]: at I2 Imidazoline Receptor, the IC50 was found to be 1530 nM. Same read-out and setting: the result for `C#CCN(C)[C@H](C)Cc1ccccc1` [Deprenyl, reference compound] reads 2310 nM.

In the case of `c1ccc2oc(C3=NCCN3)cc2c1` [Example 2-BFI, 2-benzofuranylimidazoline, reference compound], the IC50 at human recombinant MAO-A (read-out: MAO A activity IC50, human recombinant MAO-A, substrate 40 μM, 60 min room temperature) was more than 1000 nM; on I2 Imidazoline Receptor it was 7 nM. For the compound `COc1ccc(-c2ncc3cc(-n4cnc(C)c4)ccc3n2)cc1` [Example 6, [6-(4-methyl-1H-imidazol-1-yl)-2-(4-methoxyphenyl)]quinazoline], the IC50 on human recombinant MAO-A was more than 10000 nM; at human recombinant MAO-B it was more than 10000 nM; at I2 Imidazoline Receptor it was 1160 nM. `COc1cccc(-c2ncc3cc(-n4cnc(C)c4)ccc3n2)c1` [Example 8, [6-(4-methyl-1H-imidazol-1-yl)-2-(3-methoxyphenyl)]quinazoline] gave a melting point of 294 to 296 °C. Turning to `Cc1cn(-c2ccc3nc(-c4ccoc4)ncc3c2)cn1` [Example 12, [6-(4-methyl-1H-imidazol-1-yl)-2-(3-furyl)]quinazoline], the melting point fell in the range of 160.5 to 163.2 °C. As to `c1ccc(-c2ccc3cc(-n4ccnc4)ccc3n2)cc1` [Example 17], the values for the IC50 at human recombinant MAO-B (read-out: MAO B activity IC50) and at I2 Imidazoline Receptor were 10000 nM and 420 nM, respectively.

`CS(=O)(=O)c1ccc(-c2ccc3cc(-n4ccnc4)ccc3n2)cc1` [Example 25, [6-(1H-imidazol-1-yl)-2-(4-methanesulfonylphenyl)]quinoline dihydrochloride]: the “MPE (% inhibition in immobility time)” value in the data set with CD1 Mice (dose 3 mg/Kg OS) came to 23%; with CD1 Mice (dose 10 mg/Kg OS), 54%; in the data set with CD1 Mice (dose 30 mg/Kg OS) it was 40%. Also, the ED50 in the data set on CD1 Mice (dose yielding 50% reduction of immobility, oral) was 8.7 mg/Kg; OS. Moreover, the IC50 at human recombinant MAO-B was more than 10000 nM.

The record behind these values is US8633208B2, “6-1H-imidazo-quinazoline and quinolines derivatives, new MAO inhibitors and imidazoline receptor ligands” (Rottapharm S.p.A, priority 2008, dated 2014).
